# Reference: ChEMBL document CHEMBL1201862, “PubChem BioAssay data set” (2004)
#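 Exposure lasted 48 hours, with cells grown in 96-well plates and compounds tested at five concentrations. GI50 marks 50% less growth.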 Active and inactive are the calls of the source. Rule as the data show it: active = GI50 up to about 1.1 µM and inactive = higher.
# Key:
# Test in all cases: NCI-60 cell line screen, 48 h
# RXF 393 = test system: RXF 393
# HCT-15 = test system: HCT-15
# UACC-257 = test system: UACC-257
# OVCAR-4 = test system: OVCAR-4
# NCI-H23 = test system: NCI-H23
# HOP-18 = test system: HOP-18
# A498 = test system: A498
# DLD-1 = test system: DLD-1
# TK-10 = test system: TK-10
# SK-MEL-28 = test system: SK-MEL-28
# IGROV-1 = test system: IGROV-1
# 786-0 = test system: 786-0
# SK-OV-3 = test system: SK-OV-3
# SF-295 = test system: SF-295
# SK-MEL-5 = test system: SK-MEL-5
# SW-620 = test system: SW-620
# ACHN = test system: ACHN
# LXFL 529 = test system: LXFL 529
# HT-29 = test system: HT-29
# SF-539 = test system: SF-539
# HCC 2998 = test system: HCC 2998
# NCI-H460 = test system: NCI-H460
# XF498 = test system: XF498
# LOX IMVI = test system: LOX IMVI
# U-251 = test system: U-251
# DMS-114 = test system: DMS-114
# CAKI-1 = test system: CAKI-1
# SNB-19 = test system: SNB-19
# SNB-78 = test system: SNB-78
# KM-20L2 = test system: KM-20L2
# OVCAR-3 = test system: OVCAR-3
# OVCAR-8 = test system: OVCAR-8
# HCT-116 = test system: HCT-116
# HOP-62 = test system: HOP-62
# UACC-62 = test system: UACC-62
# HOP-92 = test system: HOP-92
# DMS-273 = test system: DMS-273
# A549 = test system: A549
# SN12C = test system: SN12C
# SNB-75 = test system: SNB-75
# COLO 205 = test system: COLO 205
# M14 = test system: M14
# EKVX = test system: EKVX
# M19-MEL = test system: M19-MEL
# KM12 = test system: KM12
# UO-31 = test system: UO-31
# NCI-H522 = test system: NCI-H522
# Malme-3M = test system: Malme-3M
# SK-MEL-2 = test system: SK-MEL-2
# NCI-H226 = test system: NCI-H226
# SF-268 = test system: SF-268
# MOLT-4 = test system: MOLT-4
# CCRF-CEM = test system: CCRF-CEM
# MCF7 = test system: MCF7
# NCI/ADR-RES = test system: NCI/ADR-RES
# K562 = test system: K562
# OVCAR-5 = test system: OVCAR-5
# RPMI-8226 = test system: RPMI-8226
# HL-60 = test system: HL-60
smiles,measurement,setting,value
COc1ccc2c3c(c(C(=O)O)oc13)C(CCC(=O)O)CC2 (configuration not stated),GI50,RXF 393,> 100 µM (inactive)
same,GI50,HCT-15,> 100 µM
same,GI50,UACC-257,> 100 µM (inactive)
same,GI50,OVCAR-4,> 100 µM (inactive)
same,GI50,NCI-H23,> 100 µM (inactive)
same,GI50,HOP-18,> 100 µM (inactive)
same,GI50,A498,> 100 µM (inactive)
same,GI50,DLD-1,> 100 µM (inactive)
same,GI50,TK-10,> 100 µM (inactive)
same,GI50,SK-MEL-28,> 100 µM (inactive)
same,GI50,IGROV-1,> 100 µM (inactive)
same,GI50,786-0,> 100 µM (inactive)
same,GI50,SK-OV-3,> 100 µM (inactive)
same,GI50,SF-295,> 100 µM (inactive)
same,GI50,SK-MEL-5,> 100 µM (inactive)
same,GI50,SW-620,> 100 µM (inactive)
same,GI50,ACHN,> 100 µM (inactive)
same,GI50,LXFL 529,> 100 µM (inactive)
same,GI50,HT-29,> 100 µM (inactive)
same,GI50,SF-539,> 100 µM (inactive)
same,GI50,HCC 2998,> 100 µM (inactive)
same,GI50,NCI-H460,> 100 µM (inactive)
same,GI50,XF498,> 100 µM (inactive)
same,GI50,LOX IMVI,> 100 µM (inactive)
same,GI50,U-251,> 100 µM (inactive)
same,GI50,DMS-114,> 100 µM (inactive)
same,GI50,CAKI-1,> 100 µM (inactive)
same,GI50,SNB-19,> 100 µM (inactive)
same,GI50,SNB-78,> 100 µM (inactive)
same,GI50,KM-20L2,> 100 µM (inactive)
same,GI50,OVCAR-3,> 100 µM (inactive)
same,GI50,OVCAR-8,> 100 µM (inactive)
same,GI50,HCT-116,> 100 µM (inactive)
same,GI50,HOP-62,> 100 µM (inactive)
same,GI50,UACC-62,> 100 µM (inactive)
same,GI50,HOP-92,> 100 µM (inactive)
same,GI50,DMS-273,> 100 µM (inactive)
same,GI50,A549,> 100 µM (inactive)
same,GI50,SN12C,> 100 µM (inactive)
same,GI50,SNB-75,> 100 µM (inactive)
same,GI50,COLO 205,> 100 µM (inactive)
same,GI50,M14,> 100 µM (inactive)
same,GI50,EKVX,> 100 µM (inactive)
CC(=O)Oc1cc(OC(C)=O)c2c(=O)c3ccccc3[nH]c2c1,GI50,RXF 393,58.3 µM (inactive)
same,GI50,HCT-15,49.3 µM
same,GI50,UACC-257,28.1 µM (inactive)
same,GI50,OVCAR-4,65.9 µM (inactive)
same,GI50,NCI-H23,27.2 µM (inactive)
same,GI50,HOP-18,10.5 µM (inactive)
same,GI50,M19-MEL,31.9 µM (inactive)
same,GI50,DLD-1,21.3 µM (inactive)
same,GI50,KM12,37.8 µM (inactive)
same,GI50,TK-10,38.5 µM (inactive)
same,GI50,SK-MEL-28,54.6 µM (inactive)
same,GI50,IGROV-1,19.1 µM (inactive)
same,GI50,SK-OV-3,13.9 µM (inactive)
same,GI50,SF-295,32.7 µM (inactive)
same,GI50,UO-31,12.5 µM (inactive)
same,GI50,SK-MEL-5,18.9 µM (inactive)
same,GI50,ACHN,24.6 µM (inactive)
same,GI50,LXFL 529,26.9 µM (inactive)
same,GI50,HT-29,49.2 µM (inactive)
same,GI50,SF-539,20.8 µM (inactive)
same,GI50,NCI-H522,24.8 µM (inactive)
same,GI50,NCI-H460,33.3 µM (inactive)
same,GI50,XF498,11.2 µM (inactive)
same,GI50,LOX IMVI,39.4 µM (inactive)
same,GI50,DMS-114,24.8 µM (inactive)
same,GI50,SNB-19,70.1 µM (inactive)
same,GI50,SNB-78,57 µM (inactive)
same,GI50,Malme-3M,24.4 µM (inactive)
same,GI50,OVCAR-3,16.2 µM (inactive)
same,GI50,SK-MEL-2,49.5 µM (inactive)
same,GI50,OVCAR-8,32.9 µM (inactive)
same,GI50,HCT-116,56.8 µM (inactive)
same,GI50,UACC-62,62.1 µM (inactive)
same,GI50,NCI-H226,27.5 µM (inactive)
same,GI50,SF-268,50.5 µM (inactive)
same,GI50,DMS-273,45.4 µM (inactive)
same,GI50,A549,61.9 µM (inactive)
same,GI50,SN12C,36.5 µM (inactive)
same,GI50,SNB-75,35.2 µM (inactive)
same,GI50,MOLT-4,27.5 µM (inactive)
CC(C)(C)c1ccc2c(c1)OP1(Oc3cccc4cccnc34)(O2)Oc2ccc(C(C)(C)C)cc2O1,GI50,RXF 393,3.37 µM (inactive)
same,GI50,HCT-15,2.86 µM
same,GI50,UACC-257,2.54 µM (inactive)
same,GI50,OVCAR-4,2.48 µM (inactive)
same,GI50,CCRF-CEM,0.701 µM (active)
same,GI50,NCI-H23,3.05 µM (inactive)
same,GI50,HOP-18,20.4 µM (inactive)
same,GI50,M19-MEL,10.5 µM (inactive)
same,GI50,A498,9.31 µM (inactive)
same,GI50,DLD-1,3.92 µM (inactive)
same,GI50,KM12,6.73 µM (inactive)
same,GI50,SK-MEL-28,15.7 µM (inactive)
same,GI50,IGROV-1,3.88 µM (inactive)
same,GI50,SK-OV-3,48.2 µM (inactive)
same,GI50,SF-295,4.19 µM (inactive)
same,GI50,MCF7,0.655 µM (active)
same,GI50,UO-31,4.42 µM (inactive)
same,GI50,SK-MEL-5,3.27 µM (inactive)
same,GI50,SW-620,2.25 µM (inactive)
same,GI50,NCI/ADR-RES,2.96 µM (inactive)
same,GI50,HT-29,3.89 µM (inactive)
same,GI50,SF-539,10.4 µM (inactive)
same,GI50,HCC 2998,9.89 µM (inactive)
same,GI50,NCI-H522,4.9 µM (inactive)
same,GI50,NCI-H460,3.04 µM (inactive)
same,GI50,XF498,2.72 µM (inactive)
same,GI50,K562,2.43 µM (inactive)
same,GI50,LOX IMVI,3.68 µM (inactive)
same,GI50,U-251,7 µM (inactive)
same,GI50,DMS-114,0.71 µM (active)
same,GI50,OVCAR-5,4.17 µM (inactive)
same,GI50,CAKI-1,12.2 µM (inactive)
same,GI50,SNB-19,14.2 µM (inactive)
same,GI50,RPMI-8226,0.597 µM (active)
same,GI50,SNB-78,34.4 µM (inactive)
same,GI50,Malme-3M,5.28 µM (inactive)
same,GI50,KM-20L2,4.05 µM (inactive)
same,GI50,OVCAR-3,1.79 µM (inactive)
same,GI50,SK-MEL-2,7.85 µM (inactive)
same,GI50,OVCAR-8,3.92 µM (inactive)
same,GI50,HCT-116,3.13 µM (inactive)
same,GI50,HOP-62,22.8 µM (inactive)
same,GI50,UACC-62,3.26 µM (inactive)
same,GI50,HOP-92,4.61 µM (inactive)
same,GI50,NCI-H226,8.49 µM (inactive)
same,GI50,SF-268,6.56 µM (inactive)
same,GI50,DMS-273,3.75 µM (inactive)
same,GI50,A549,5.58 µM (inactive)
same,GI50,SN12C,12.8 µM (inactive)
same,GI50,SNB-75,15.7 µM (inactive)
same,GI50,MOLT-4,0.57 µM (active)
same,GI50,COLO 205,2.85 µM (inactive)
same,GI50,HL-60,1.76 µM (inactive)
same,GI50,EKVX,3.08 µM (inactive)
